Reference: patent publication US8680052B1, “Methods of treating, reducing the incidence of, and/or preventing ischemic events” (The Medicines Company, priority 2013, dated 2014)
Like-named read-outs stand apart in the source and are kept apart here.

System: patients with acute coronary syndromes undergoing PCI
Conditions: for All-cause mortality OR (95% CI) / IDR OR (95% CI) / MI OR (95% CI) / Mortality/MI/IDR OR (95% CI) / Mortality/Q-wave MI/IDR OR (95% CI) / Mortality/Q-wave MI/Stent thrombosis OR (95% CI) / Q-wave MI OR (95% CI) / Stent thrombosis OR (95% CI): Cangrelor vs Clopidogrel; for Angiographic complications (site reported): Abrupt vessel closure / Angiographic complications (site reported): Acute stent thrombosis / Angiographic complications (site reported): Need for urgent CABG / Angiographic complications (site reported): New thrombus or suspected thrombus / Angiographic complications (site reported): Threatened abrupt closure / Angiographic complications (site reported): Unsuccessful procedure: index PCI
Procedure: Patients were eligible for enrollment if they had stable angina, unstable angina, or non-ST-segment elevation (NSTE) MI with obstructive coronary artery disease and were scheduled to undergo PCI.
The infusion began within 30 minutes prior to PCI and continued for at least 2 hours or until the conclusion of the index procedure, whichever was longer. At the treating physician's discretion, the infusion could be continued for 4 hours.
All patients received aspirin 75-325 mg per local site standards. Adjunctive anticoagulants (unfractionated heparin, low molecular weight heparin, bivalirudin, or fondaparinux) and the procedural use of glycoprotein IIb/IIIa inhibitors were determined by the treating physician.
The primary efficacy endpoint was the 48-hour composite of all-cause mortality, MI, or ischemia-driven revascularization. Prespecified secondary efficacy endpoints included the composite of mortality or MI at 48 hours and 30 days; the composite of mortality, MI, or ischemia-driven revascularization at 30 days; the components of the composite endpoints at 48 hours and 30 days; stroke at 48 hours; abrupt closure, threatened abrupt closure, need for urgent coronary artery bypass grafting, or unsuccessful procedure during the index PCI; acute (24 hours) and 48 hours stent thrombosis; and all-cause mortality at 6 months and 1 year.
Rates of MI and ischemia-driven revascularization up to 30 days following the index procedure were assessed. Ischemia-driven revascularization was defined as symptoms of myocardial ischemia leading to urgent (within 24 hours of the last episode of ischemia) revascularization, which must have occurred after the index procedure concluded (i.e., guidewire removal). New electrocardiographic changes, acute pulmonary edema, ventricular arrhythmias, or hemodynamic instability could also constitute evidence of ischemia.
MI was defined by a new Q wave (duration >0.03 seconds) in two contiguous electrocardiographic leads or elevations in creatine kinase (CK) and CK-MB, including a rise of CK-MB≧3 times the local upper limit or normal and, when biomarkers were elevated prior to PCI, an additional 50% above baseline. One baseline troponin measurement was required for patients undergoing urgent PCI. Measurements of CK-MB were obtained at 2, 10, 17, and 24 hours post-PCI.
The primary efficacy analysis was to be determined in the modified intent-to-treat (mITT) population, defined as all randomized patients (excluding STEMI cohort) who received at least one dose of study drug and underwent the index PCI. The safety population consisted of all randomized patients who received any study drug. Patients in the safety analyses were assigned to a treatment arm based on treatment received, not as randomized.

SMILES: CSCCNc1nc(SCCC(F)(F)F)nc2c1ncn2[C@@H]1O[C@H](COP(=O)(O)OP(=O)(O)C(Cl)(Cl)P(=O)(O)O)[C@@H](O)[C@H]1O [Cangrelor, cangrelor]
- Q-wave MI (30 days, MITT Without STEMI): 7 (0.2) no. (%)
- Stent thrombosis (30 days, MITT Without STEMI): 20 (0.5) no. (%)
- All-cause mortality OR (95% CI) (30 days, MITT Without STEMI): 1.177 (0.704, 1.967)
- IDR OR (95% CI) (30 days, MITT Without STEMI): 0.837 (0.559, 1.254)
- MI OR (95% CI) (30 days, MITT Without STEMI): 1.072 (0.905, 1.272)
- Mortality/MI/IDR OR (95% CI) (30 days, MITT Without STEMI): 1.044 (0.891, 1.224)
- Mortality/Q-wave MI/IDR OR (95% CI) (30 days, MITT Without STEMI): 0.930 (0.679, 1.273)
- Mortality/Q-wave MI/Stent thrombosis OR (95% CI) (30 days, MITT Without STEMI): 1.030 (0.702, 1.511)
- Q-wave MI OR (95% CI) (30 days, MITT Without STEMI): 0.462 (0.188, 1.134)
- Stent thrombosis OR (95% CI) (30 days, MITT Without STEMI): 0.991 (0.533, 1.846)
- All-cause mortality OR (95% CI) (30 days, MITT): 1.046 (0.670, 1.635)
- IDR OR (95% CI) (30 days, MITT): 0.902 (0.634, 1.283)
- MI OR (95% CI) (30 days, MITT): 1.078 (0.914, 1.271)
- Mortality/MI/IDR OR (95% CI) (30 days, MITT): 1.042 (0.895, 1.211)
- Mortality/Q-wave MI/IDR OR (95% CI) (30 days, MITT): 0.927 (0.703, 1.222)
- Mortality/Q-wave MI/Stent thrombosis OR (95% CI) (30 days, MITT): 0.924 (0.663, 1.290)
- Q-wave MI OR (95% CI) (30 days, MITT): 0.595 (0.260, 1.362)
- Stent thrombosis OR (95% CI) (30 days, MITT): 0.894 (0.530, 1.506)
- All-cause mortality (30 days, Safety population): 40 (0.9) no. (%)
- IDR (30 days, Safety population): 60 (1.4) no. (%)
- MI (30 days, Safety population): 318 (7.4) no. (%)
- Mortality/MI/IDR (30 days, Safety population): 379 (8.8) no. (%)
- Mortality/Q-wave MI/IDR (30 days, Safety population): 100 (2.3) no. (%)
- Mortality/Q-wave MI/Stent thrombosis (30 days, Safety population): 68 (1.6) no. (%)
- Q-wave MI (30 days, Safety population): 9 (0.2) no. (%)
- Stent thrombosis (30 days, Safety population): 27 (0.6) no. (%)
- All-cause mortality OR (95% CI) (30 days, Safety population): 0.974 (0.629, 1.508)
- IDR OR (95% CI) (30 days, Safety population): 0.893 (0.628, 1.268)
- MI OR (95% CI) (30 days, Safety population): 1.090 (0.925, 1.285)
- Mortality/MI/IDR OR (95% CI) (30 days, Safety population): 1.040 (0.895, 1.209)
- Mortality/Q-wave MI/IDR OR (95% CI) (30 days, Safety population): 0.897 (0.682, 1.179)
- Mortality/Q-wave MI/Stent thrombosis OR (95% CI) (30 days, Safety population): 0.892 (0.641, 1.240)
- Q-wave MI OR (95% CI) (30 days, Safety population): 0.598 (0.262, 1.368)
- Stent thrombosis OR (95% CI) (30 days, Safety population): 0.898 (0.533, 1.513)
- Angiographic complications (site reported): Abrupt vessel closure (ITT): 24 (0.6)
- Angiographic complications (site reported): Acute stent thrombosis (ITT): 2 (0.0)
- Angiographic complications (site reported): Need for urgent CABG (ITT): 10 (0.2)
- Angiographic complications (site reported): New thrombus or suspected thrombus (ITT): 17 (0.4)
- Angiographic complications (site reported): Threatened abrupt closure (ITT): 13 (0.3)
- Angiographic complications (site reported): Unsuccessful procedure (ITT): 90 (2.1)
- Angiographic complications (site reported): Abrupt vessel closure (ITT With STEMI): 4 (0.9)
- Angiographic complications (site reported): Acute stent thrombosis (ITT With STEMI): 0 (0.0)
- Angiographic complications (site reported): Need for urgent CABG (ITT With STEMI): 2 (0.4)
- Angiographic complications (site reported): New thrombus or suspected thrombus (ITT With STEMI): 1 (0.2)
- Angiographic complications (site reported): Threatened abrupt closure (ITT With STEMI): 4 (0.9)
- Angiographic complications (site reported): Unsuccessful procedure (ITT With STEMI): 9 (2.0)
- Angiographic complications (site reported): Abrupt vessel closure (ITT Without STEMI): 20 (0.5)
- Angiographic complications (site reported): Acute stent thrombosis (ITT Without STEMI): 2 (0.1)
- Angiographic complications (site reported): Need for urgent CABG (ITT Without STEMI): 8 (0.2)
- Angiographic complications (site reported): New thrombus or suspected thrombus (ITT Without STEMI): 16 (0.4)
- Angiographic complications (site reported): Threatened abrupt closure (ITT Without STEMI): 9 (0.2)
- Angiographic complications (site reported): Unsuccessful procedure (ITT Without STEMI): 81 (2.1)
- Angiographic complications (site reported): Abrupt vessel closure (MITT): 24 (0.6)
- Angiographic complications (site reported): Acute stent thrombosis (MITT): 2 (0.0)
- Angiographic complications (site reported): Need for urgent CABG (MITT): 8 (0.2)
- Angiographic complications (site reported): New thrombus or suspected thrombus (MITT): 17 (0.4)
- Angiographic complications (site reported): Threatened abrupt closure (MITT): 13 (0.3)
- Angiographic complications (site reported): Unsuccessful procedure (MITT): 90 (2.1)
- Angiographic complications (site reported): Abrupt vessel closure (MITT NSTEMI): 20 (0.5)
- Angiographic complications (site reported): Acute stent thrombosis (MITT NSTEMI): 2 (0.1)
- Angiographic complications (site reported): Need for urgent CABG (MITT NSTEMI): 7 (0.2)
- Angiographic complications (site reported): New thrombus or suspected thrombus (MITT NSTEMI): 16 (0.4)
- Angiographic complications (site reported): Threatened abrupt closure (MITT NSTEMI): 9 (0.2)
- Angiographic complications (site reported): Unsuccessful procedure (MITT NSTEMI): 81 (2.1)
- Angiographic complications (site reported): Abrupt vessel closure (Safety population): 24 (0.6)
- Angiographic complications (site reported): Acute stent thrombosis (Safety population): 2 (0.0)
- Angiographic complications (site reported): Need for urgent CABG (Safety population): 8 (0.2)
- Angiographic complications (site reported): New thrombus or suspected thrombus (Safety population): 17 (0.4)
- Angiographic complications (site reported): Threatened abrupt closure (Safety population): 13 (0.3)
- Angiographic complications (site reported): Unsuccessful procedure (Safety population): 90 (2.1)
